We go through 1 molecule from patent US4257773A, “Assay method and compounds” (Burroughs Wellcome Co., priority 1979, dated 1981).

For the assay, the system named is opiate receptor. As to the kind of experiment: Specific binding affinity of radio-iodinated peaks for the opiate receptor. Conditions: monoiodinated (first peak) compared with diiodinated (second peak) compound. As for the experimental part: The material comprising this peak was applied to a Sephadex 2-(diethylamino)ethyl ether column and eluted with sodium borate buffer (12.5 mM, pH 9.0, 0.1 N sodium chloride).

`CC(C)C[C@H](NC(=O)[C@H](Cc1ccccc1)NC(=O)CNC(=O)[C@@H](C)NC(=O)[C@@H](N)Cc1ccc(O)c([125I])c1)C(=O)O` [material of the first peak, H.Tyr(3-^125 I).D-Ala.Gly.Phe.Leu.OH]: the “specific binding affinity (for the opiate receptor)” value is recorded as “greater specific binding affinity (for the opiate receptor) than that of the second peak”.
